Calls of active or inactive are those of the source.
Experiments:
[1] = luciferase reporter signal suppression in cells – H4 neuroglioma cells, luminescence, dose response (AID 1990); type: functional, cell-based
[2] = Luminescence Cell-Based Dose Response HTS to Identify Inhibitors of 5'UTR Stem-Loop Driven Prion Protein mRNA Translation in H4 Neuroglioblastoma Cells. [Related pubchem assays: 1827 (Project Summary), 1813 (Primary HTS)]; type: functional
[3] = alpha-synuclein stem-loop luciferase translation blockers – H4 neuroglioma cells, luminescence, confirmation (AID 1988); type: functional, cell-based
[4] = NIH-3T3 fibroblast cytotoxicity, dose response, cytotoxicity control, cell-based, fluorescence, Alamar Blue, secondary assay (AID 2327); type: functional;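 further: NIH-3T3 mouse fibroblasts cultured with fluconazole at 8 µg/mL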
[5] = tested on: Streptococcus sp. 'group A'; test: Streptococcus pyogenes SK(-)GAS viability under kanamycin – luminescence, BacTiterGlo, confirmation, counter-screen for streptokinase expression inhibitor project, dose response (AID 1900); type: functional, organism-based
Streptokinase A = biological target: T1, Streptokinase A (Streptococcus pyogenes serotype M1, UniProt P10520); test: viability-normalized secreted streptokinase activity reduction – plasminogen activation absorbance, OD405, dose response (AID 1914); type: functional, Streptococcus pyogenes M1 GAS;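 further: secreted streptokinase activity via plasminogen activation per viability signal from cell pellet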
T1 sequence (P10520 whole entry): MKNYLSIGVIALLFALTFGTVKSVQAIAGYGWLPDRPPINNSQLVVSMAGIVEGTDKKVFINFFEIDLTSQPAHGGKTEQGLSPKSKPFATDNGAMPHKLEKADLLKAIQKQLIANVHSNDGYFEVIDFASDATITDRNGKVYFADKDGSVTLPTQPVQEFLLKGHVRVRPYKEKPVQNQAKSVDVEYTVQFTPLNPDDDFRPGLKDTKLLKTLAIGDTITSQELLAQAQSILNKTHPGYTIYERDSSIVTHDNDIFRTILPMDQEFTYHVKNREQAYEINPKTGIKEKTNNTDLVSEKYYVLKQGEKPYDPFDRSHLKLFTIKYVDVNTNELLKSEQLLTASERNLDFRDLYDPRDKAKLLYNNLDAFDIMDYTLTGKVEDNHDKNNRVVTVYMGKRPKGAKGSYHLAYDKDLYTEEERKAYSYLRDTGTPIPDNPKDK

[6] = fluconazole-exposed Candida albicans growth modulators – fluorescence, retest, confirmation (AID 2467); type: functional, cell-based
Streptococcus = test: GAS UMAA2166 growth inhibition – luminescence, BacTiterGlo, counter-screen for streptokinase expression inhibitor project, dose response (AID 1915); type: functional, organism-based;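 further: potency for reduction of bacterial viability or growth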
[7] = biological target: T2, RNA-binding protein pos-1 (Caenorhabditis elegans, UniProt G5EF15); test: disruptors of C. elegans POS-1 RNA interaction – biochemical, fluorescence polarization, dose response (AID 1964);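 further: purified POS-1 fused to maltose binding protein made in E. coli; potency of compounds blocking POS-1 binding to fluorescent RNA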
T2 sequence (G5EF15 whole entry): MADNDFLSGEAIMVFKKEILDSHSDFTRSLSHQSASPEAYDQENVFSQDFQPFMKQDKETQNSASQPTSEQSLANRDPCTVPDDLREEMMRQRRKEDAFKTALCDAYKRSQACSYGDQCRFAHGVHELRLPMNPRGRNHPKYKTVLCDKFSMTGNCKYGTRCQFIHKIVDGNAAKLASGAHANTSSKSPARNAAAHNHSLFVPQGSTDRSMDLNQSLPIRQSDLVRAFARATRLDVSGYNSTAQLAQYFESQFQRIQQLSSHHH

[8] = biological target: T3, Zinc finger protein mex-5 (Caenorhabditis elegans, UniProt Q9XUB2); test: potency of MEX-5 RNA-binding blockers – biochemical, C. elegans, fluorescence polarization, dose response (AID 1960)
T3 sequence (Q9XUB2 whole entry): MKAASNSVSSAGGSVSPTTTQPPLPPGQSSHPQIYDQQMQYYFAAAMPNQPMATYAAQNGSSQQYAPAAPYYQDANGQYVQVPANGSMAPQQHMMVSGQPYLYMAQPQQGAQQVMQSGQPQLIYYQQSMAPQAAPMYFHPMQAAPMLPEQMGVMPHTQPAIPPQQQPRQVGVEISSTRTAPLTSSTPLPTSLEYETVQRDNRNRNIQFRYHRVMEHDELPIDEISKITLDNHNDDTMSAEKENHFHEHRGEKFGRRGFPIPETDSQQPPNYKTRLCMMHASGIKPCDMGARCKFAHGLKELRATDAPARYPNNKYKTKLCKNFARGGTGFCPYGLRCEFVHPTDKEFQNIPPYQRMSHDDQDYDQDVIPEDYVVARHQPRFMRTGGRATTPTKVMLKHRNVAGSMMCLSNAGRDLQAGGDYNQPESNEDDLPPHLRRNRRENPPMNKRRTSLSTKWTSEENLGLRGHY

Cytochrome P450 2C19 = Cytochrome P450 2C19 (Homo sapiens, UniProt P33261); test: Cytochrome panel assay with activity outcomes. Panel member name: p450-cyp2c19 Compounds with AC50 equal or less than 10 uM are considered active; type: functional; details: read-out: AC50
Cytochrome P450 2C19, sequence (P33261 whole entry): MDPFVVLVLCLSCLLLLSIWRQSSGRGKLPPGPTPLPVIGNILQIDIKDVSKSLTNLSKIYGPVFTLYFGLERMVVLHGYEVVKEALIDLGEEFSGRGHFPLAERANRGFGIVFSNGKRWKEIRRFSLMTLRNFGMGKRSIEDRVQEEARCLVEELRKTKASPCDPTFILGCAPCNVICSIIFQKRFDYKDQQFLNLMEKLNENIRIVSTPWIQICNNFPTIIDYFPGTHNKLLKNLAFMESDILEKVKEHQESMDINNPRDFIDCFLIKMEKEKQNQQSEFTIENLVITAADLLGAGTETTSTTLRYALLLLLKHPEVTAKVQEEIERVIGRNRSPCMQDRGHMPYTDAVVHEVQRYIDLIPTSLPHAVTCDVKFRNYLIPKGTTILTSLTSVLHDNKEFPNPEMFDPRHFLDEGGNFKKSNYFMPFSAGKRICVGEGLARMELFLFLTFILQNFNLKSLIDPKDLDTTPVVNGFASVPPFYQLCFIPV

Cytochrome P450 2D6 = Cytochrome P450 2D6 (Homo sapiens, UniProt P10635);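 further: CYP2D6 member of a cytochrome P450 panel assay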
Cytochrome P450 2D6, sequence (P10635 whole entry): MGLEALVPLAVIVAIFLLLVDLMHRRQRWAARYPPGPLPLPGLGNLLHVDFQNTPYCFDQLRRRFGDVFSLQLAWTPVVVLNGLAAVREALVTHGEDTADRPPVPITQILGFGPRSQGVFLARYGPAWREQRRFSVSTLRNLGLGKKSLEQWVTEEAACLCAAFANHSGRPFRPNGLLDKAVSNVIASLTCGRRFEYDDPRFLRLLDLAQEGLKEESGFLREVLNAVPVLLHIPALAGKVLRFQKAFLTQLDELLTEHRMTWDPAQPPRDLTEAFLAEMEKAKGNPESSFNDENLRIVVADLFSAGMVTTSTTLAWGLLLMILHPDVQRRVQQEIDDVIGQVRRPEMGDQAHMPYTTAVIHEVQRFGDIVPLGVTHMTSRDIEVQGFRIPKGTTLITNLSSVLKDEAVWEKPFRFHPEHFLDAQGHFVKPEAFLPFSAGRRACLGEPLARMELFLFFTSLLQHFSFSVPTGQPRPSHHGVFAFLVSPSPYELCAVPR

Cytochrome P450 2C9 = Cytochrome P450 2C9 (Homo sapiens, UniProt P11712)
Cytochrome P450 2C9, sequence (P11712 whole entry): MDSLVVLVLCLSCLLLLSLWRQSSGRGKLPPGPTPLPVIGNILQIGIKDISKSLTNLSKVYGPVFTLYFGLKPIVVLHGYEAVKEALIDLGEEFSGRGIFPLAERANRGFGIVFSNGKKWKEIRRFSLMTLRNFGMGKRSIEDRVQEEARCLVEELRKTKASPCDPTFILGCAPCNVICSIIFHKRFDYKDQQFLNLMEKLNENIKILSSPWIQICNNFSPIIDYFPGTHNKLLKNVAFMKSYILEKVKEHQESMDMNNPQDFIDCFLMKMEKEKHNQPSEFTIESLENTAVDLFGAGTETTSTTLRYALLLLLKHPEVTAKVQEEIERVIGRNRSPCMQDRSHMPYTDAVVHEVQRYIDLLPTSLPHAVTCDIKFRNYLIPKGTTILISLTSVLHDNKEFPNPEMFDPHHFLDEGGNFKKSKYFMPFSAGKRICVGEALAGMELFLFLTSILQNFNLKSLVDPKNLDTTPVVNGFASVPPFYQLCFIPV

cells = type: functional
[9] = viability of uninfected HEp-2 cells – cell-based, HTS, cytotoxicity control for RSV inhibitor project, dose response (AID 2410); type: functional; details: human respiratory syncytial virus

## Cc1cc(C)c(S(=O)(=O)N(C)CC(=O)NC2CCCC2)c(C)c1
[1]
  EC50: > 120 µM (not active)
[2]
  EC50: > 120 µM (not active)
[3]
  EC50: > 120 µM (not active)

## COc1cc(C(=O)NC(=S)N(CCc2ccccc2)CCc2ccccc2)cc(OC)c1OC
[4]
  EC50: 28.6 µM (active)
[1]
  EC50: > 120 µM (not active)
[5]
  EC50: 0.525 µM (active)
[2]
  EC50: 12.2 µM (active)
[3]
  EC50: 10.6 µM (active)
Streptokinase A
  EC50: > 150 µM (not active)
[6]
  EC50: 4.2 µM (active)
Streptococcus
  EC50: 17.9 µM (active)

## CCCCC1=CC2=C(c3ccco3)C(=O)C(C)(OC(=O)c3ccc(OC)cc3)C(=O)C2=CN1CCN1CCOCC1 (configuration not stated)
[7]
  EC50: 95.7 µM (active)
[8]
  EC50: 42.2 µM (active)

## COc1ccc2c(c1)c(CC(=O)Nc1cccc(S(N)(=O)=O)c1)c(C)n2C(=O)c1ccc(Cl)cc1
[5]
  EC50: 5.48 µM (active)
Streptokinase A
  EC50: > 150 µM (not active)
Streptococcus
  EC50: > 50 µM (not active)

## Cc1ccccc1N1CCN(C(=O)CCN2C(=O)c3ccccc3C2=O)CC1
[5]
  EC50: > 150 µM (not active)
Streptokinase A
  EC50: > 150 µM (not active)
Streptococcus
  EC50: > 150 µM (not active)

## Cc1cccc(OCC(=O)Nc2ccncc2)c1
[5]
  EC50: > 150 µM (not active)
Streptokinase A
  EC50: > 150 µM (not active)
Streptococcus
  EC50: > 150 µM (not active)

## CC(C)(O)c1[nH]c2cc(F)ccc2c1C(C)(C)O
[5]
  EC50: 2.05 µM (active)
Streptokinase A
  EC50: > 150 µM (not active)
Streptococcus
  EC50: 8.02 µM (active)

## CCCN1CC=C2C(C#N)=C(N)C(C#N)(C#N)C(c3cc(OC)ccc3OC)C2C1 (configuration not stated)
[7]
  EC50: 27.9 µM (active)
[8]
  EC50: 25.5 µM (active)
Cytochrome P450 2C19
  AC50: 14.1 µM (inconclusive)
Cytochrome P450 2D6
  AC50: 15.8 µM (inconclusive)
Cytochrome P450 2C9
  AC50: 7.94 µM (inconclusive)

## Cc1ccc(/C=C2\SC(N3CCCC3)=NC2=O)cc1
cells
  IC50: 5.13 µM (active)

## O=C(OCc1c(Cl)cccc1Cl)c1ccccn1
cells
  IC50: 10.6 µM (active)

## CN(Cc1ccc(OC(F)F)cc1)Cc1nc2c(Br)cc(Br)cc2c(=O)[nH]1
Streptokinase A
  EC50: 29.4 µM (active)

## CC1C(=O)C(C)C(c2ccc(Cl)cc2)NC1c1ccc(Cl)cc1 (configuration not stated)
[1]
  EC50: 13.8 µM (active)
[2]
  EC50: 15.7 µM (active)
[3]
  EC50: 17.1 µM (active)

## O=C(CC1CCCC1)OCn1nnc2ccccc2c1=O
cells
  IC50: 11.1 µM (active)

## Nc1[nH]nc(C2CC2)c1N=Nc1ccc(Cl)c(Cl)c1
[9]
  CC50: 17.5 µM (active)
[5]
  EC50: 4.36 µM (active)
Streptokinase A
  EC50: 17 µM (active)
Streptococcus
  EC50: > 150 µM (not active)

## O=C(CN(Cc1ccc(F)cc1)C(=O)C1CSC(=O)C1)NC1CCCCC1 (configuration not stated)
[1]
  EC50: > 120 µM (not active)
[2]
  EC50: > 120 µM (not active)
[3]
  EC50: > 120 µM (not active)

## COc1ccc(/C=C/C(=O)NC(=S)NNC(=O)c2ccco2)cc1OC
[5]
  EC50: 3.65 µM (active)
Streptokinase A
  EC50: > 150 µM (not active)
Streptococcus
  EC50: 25.4 µM (active)

## C1CCCCCC2(CCCCC1)OCC(CN1CCOCC1)O2 (configuration not stated)
[1]
  EC50: > 120 µM (not active)
[2]
  EC50: > 120 µM (not active)
[3]
  EC50: > 120 µM (not active)

## COc1cccc(OC(=O)c2cc3ccccc3oc2=O)c1
cells
  IC50: > 50 µM (active)

## COC(=O)[C@H]1[C@H](CCc2ccccc2)NC(=O)N(Cc2ccccc2)[C@@H]1C
Streptokinase A
  EC50: > 150 µM (not active)
Streptococcus
  EC50: > 150 µM (not active)

## COC(=O)C1(C(C[N+](=O)[O-])c2ccc(C)cc2)C(=O)NCC1c1ccco1 (configuration not stated)
[5]
  EC50: 8.44 µM (active)
Streptokinase A
  EC50: > 150 µM (inconclusive)
Streptococcus
  EC50: 76.6 µM (active)

## COc1cccc(C(=O)N2C(C(=O)O)CSC2c2ccccc2Cl)c1 (configuration not stated)
[5]
  EC50: > 150 µM (not active)
Streptokinase A
  EC50: > 150 µM (not active)
Streptococcus
  EC50: > 150 µM (not active)

## O=C(Nc1nnc(-c2ccc(Br)cc2)o1)c1cccc(N2C(=O)CCC2=O)c1
[5]
  EC50: 4.43 µM (active)
Streptokinase A
  EC50: > 150 µM (not active)
Streptococcus
  EC50: 14.1 µM (active)

## CCOC(=O)CN(C#N)c1nc(N(C)C)nc(N(C)C)n1
cells
  IC50: 26.9 µM (active)

## O=C(NCc1ccc2c(c1)OCO2)C(=O)NCC1OCCN1S(=O)(=O)c1ccc(Br)cc1 (configuration not stated)
[5]
  EC50: > 150 µM (not active)
Streptokinase A
  EC50: > 150 µM (inconclusive)
Streptococcus
  EC50: > 150 µM (not active)

## CCC1CN(C(=O)N2CCC(C(=O)NCc3ccc(C)o3)CC2)c2ccccc2O1 (configuration not stated)
[1]
  EC50: > 120 µM (not active)
[2]
  EC50: > 120 µM (not active)
[3]
  EC50: > 120 µM (not active)

## Nc1nc(NCc2ccco2)nc(N2CCCCCC2)c1[N+](=O)[O-]
[5]
  EC50: 2.82 µM (active)
Streptokinase A
  EC50: > 150 µM (not active)
Streptococcus
  EC50: 7.75 µM (active)

## CN(C(=O)COC(=O)c1ccc([N+](=O)[O-])cc1Cl)C1CCCCC1
cells
  IC50: 6.26 µM (active)

## COc1ccc(O)c2c(=O)c3c(OC)cc4c(c3oc12)C1C=COC1O4 (configuration not stated)
[2]
  EC50: 19.6 µM (active)

## CC(C)C(=O)Nc1cccc(-c2nc3ccccc3c(=O)o2)c1
cells
  IC50: 20.7 µM (active)

## O=C(NCC1CCCO1)c1ccc(CS(=O)(=O)Cc2ccc(F)cc2)o1 (configuration not stated)
[7]
  EC50: > 300 µM (not active)
[8]
  EC50: > 300 µM (not active)
Cytochrome P450 2C19
  AC50: 39.8 µM (inconclusive)

## O=[N+]([O-])c1ccc(CN2CCN(c3ccccc3)CC2)o1
cells
  IC50: 0.13 µM (active)

## Cc1cc(C)n(-c2nc(SCC(=O)O)c3c4c(sc3n2)CCCC4)n1
[5]
  EC50: 8.77 µM (active)
Streptokinase A
  EC50: > 150 µM (not active)
Streptococcus
  EC50: > 150 µM (not active)

## O=C(CN1C(=O)COc2ccc(S(=O)(=O)N3CCCCC3)cc21)NCc1ccc(F)cc1
[5]
  EC50: > 150 µM (not active)
Streptokinase A
  EC50: > 150 µM (not active)
Streptococcus
  EC50: > 150 µM (not active)

## O=C(COc1ccccc1)NCCSCc1ccc(Cl)cc1
cells
  IC50: 22.2 µM (active)

## O=C(COC(=O)c1cc(Br)ccc1Cl)NC1CCCC1
cells
  IC50: 18.2 µM (active)

## CC/C(=N\NC(=S)Nc1cccc(C)c1)c1ccccc1
[5]
  EC50: 12.3 µM (active)
Streptokinase A
  EC50: 21.3 µM (active)
Streptococcus
  EC50: > 50 µM (not active)

## CC(C)(C)C(=O)/C=C/Nc1ccccc1O
cells
  IC50: 3.27 µM (active)

## COc1cccc(/C=N/n2c(N)nc3ccccc32)c1OC
[5]
  EC50: > 150 µM (not active)
Streptokinase A
  EC50: > 150 µM (not active)
Streptococcus
  EC50: > 150 µM (not active)

## C/C(=N/NS(=O)(=O)c1ccc(Cl)cc1)c1cccc(NC(=O)c2ccc(Cl)cc2Cl)c1
[5]
  EC50: 3.99 µM (active)
Streptokinase A
  EC50: 23.4 µM (active)
Streptococcus
  EC50: 47.6 µM (active)

## COc1ccc(C(=O)/N=C2\SC3CS(=O)(=O)CC3N2Cc2ccccc2)cc1OC (configuration not stated)
[1]
  EC50: 26.2 µM (active)
[2]
  EC50: 25.4 µM (active)
[3]
  EC50: > 120 µM (not active)

## C/C(CCc1oc2ccc(Cl)cc2c1-c1ccc(C)o1)=N\O
[9]
  CC50: 37.9 µM (active)
[7]
  EC50: > 300 µM (not active)
[8]
  EC50: > 300 µM (not active)

## COc1ccc(N2C(N)=NC(N)=NC2(C)C)cc1
[1]
  EC50: 10 µM (active)
[2]
  EC50: > 120 µM (not active)
[3]
  EC50: 7.02 µM (active)

## c1ccc(C2=Nc3ccccc3OC2)cc1
cells
  IC50: 7.95 µM (active)

From ChEMBL document CHEMBL1201862, “PubChem BioAssay data set” (2004)
